Source: paper PMC5743599 (Antiviral research, 2017)

Experiments:
HBV genotype A = test: Pilot/preliminary efficacy study in HBV genotype A-infected huFRG KO mice; type: in vivo, hepatitis B virus
HBV genotype C = test: Primary efficacy study in HBV genotype C-infected huFRG KO mice; type: in vivo, hepatitis B virus
Tolerability = type: in vivo, huFRG KO mice; details: for weight recovery after the treatment phase: primary study, post-treatment
[1] = Single and repeat dose maximum tolerated dose studies; type: in vivo, C57Bl/6 mice or huFRG KO mice
HBV = HBV transgenic mouse model; type: in vivo, hepatitis B virus; details: HBV transgenic mice, 100 mg/kg daily IP; data not shown
[2] = entecavir 1 mg/kg/day PO, Days 59-72, genotype C

| Structure (SMILES) | Viral titers rebounded to pretreatment levels by Day (HBV genotype A; after entecavir withdrawal (treatment days 71-84), genotype A) [days] | drop in HBV titers more than the control animals (HBV genotype A; entecavir 1.0 mg/kg PO two weeks, Days 70 to 85, genotype A, plasma) [log] | decrease in HBV titers after one week of treatment (HBV genotype C; [2]) [log] | decrease in HBV titers after two weeks (HBV genotype C; [2]) [log] | weight recovery after the treatment phase (Tolerability) | Dose-limiting toxicity ([1]; non-infected mice, IP) | maximum tolerated dose (MTD) ([1]; single and repeat IP injections up to seven days, male C57Bl/6 or huFRG KO mice) [mg/kg] | suppression of HBV viremia (average) after one week (HBV genotype A; 50 and 100 mg/kg/day IP, Days 160-173, vs pretreatment Day 159, genotype A) [log] | suppression of HBV viremia at week two (HBV genotype A; 50 and 100 mg/kg/day IP, surviving mice, genotype A) | decrease in HBV titers (trend) in pilot experiment (HBV genotype A; genotype A, #208 treated animals) [log] | decrease in HBV titers after one week compared to control mice (HBV genotype C; 100 mg/kg/day IP, genotype C) [log] | decrease in HBV titers after two weeks of dosing compared to control mice (HBV genotype C; 100 mg/kg/day IP, genotype C) [log] | reduction of intrahepatic DNA accumulation (HBV) | reduction of serum viremia (HBV) | deaths / moribundity in post-dosing phase of primary study (Tolerability; Day 87-88, one animal per group, not with certainty test article-related) |
| --- | --- | --- | --- | --- | --- | --- | --- | --- | --- | --- | --- | --- | --- | --- | --- |
| C=C1[C@H](CO)[C@@H](O)C[C@@H]1n1cnc2c(=O)[nH]c(N)nc21 [entecavir, Entecavir, reference compound] | ≤ 159 | 2.8 | 2.6 | 3.2 | some weight gain occurred | – | – | – | – | – | – | – | – | – | – |
| CC(=Nc1ccccc1N)c1c(C)cc(=O)n(O)c1O [#208] | – | – | – | – | some weight gain occurred | >10% weight loss, hypoactivity, unkempt appearance, feeling cool-to-touch, and distended abdomen | 100 | 1.1 | sustained | ~1 | 1.6 | 1.4 | failed to reduce | failed to reduce | found dead |
